1 compound from patent publication US12486269B2 (Aconcagua Bio, Inc., priority 2024, dated 2025) can be followed below.

In test [1] the target is T1, human calcitonin receptor (CTR) (Homo sapiens, UniProt P30988).
T1 construct: expressed in transfected cells; host or cells: COS-7 (COS7-human CTR Clone #2)
T1 sequence (P30988 25-474): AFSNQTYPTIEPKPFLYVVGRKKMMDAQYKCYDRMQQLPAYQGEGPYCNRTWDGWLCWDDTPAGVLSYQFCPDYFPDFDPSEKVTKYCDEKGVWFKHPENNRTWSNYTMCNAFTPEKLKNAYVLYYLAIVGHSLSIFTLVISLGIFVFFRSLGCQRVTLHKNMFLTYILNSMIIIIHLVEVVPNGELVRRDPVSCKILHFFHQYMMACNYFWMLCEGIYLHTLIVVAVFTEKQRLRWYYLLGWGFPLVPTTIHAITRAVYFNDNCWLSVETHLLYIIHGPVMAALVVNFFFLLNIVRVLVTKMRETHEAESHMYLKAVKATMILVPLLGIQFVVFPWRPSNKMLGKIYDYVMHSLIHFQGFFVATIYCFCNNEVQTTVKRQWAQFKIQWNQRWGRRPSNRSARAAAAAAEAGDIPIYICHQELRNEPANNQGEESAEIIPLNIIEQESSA
Nature of the test: Calcitonin Receptor (CTR) cAMP Assay. Conditions: COS7-human CTR Clone #2 stable cell line, cAMP dynamic 2 kit, 30 min; read-out: Calcitonin Receptor cAMP Stimulation Activity: EC50. The test is classed as cell-based. The procedure, abridged: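 COS-7 cells stably expressing human CTR (2000 cells/well) were incubated 30 min at 37 °C with 4-fold serially diluted compound in HBSS/20 mM HEPES/0.5 mM IBMX/0.1% casein. cAMP was detected by HTRF (665/615 nm) after 1 h at RT. % activity was normalised to vehicle and positive controls.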

The target in test [2] is T2, COS-7/AMY3 (human calcitonin receptor (CTR) and RAMP3) (Homo sapiens, UniProt O60896+P30988).
T2 construct: expressed in transfected cells; host or cells: COS-7
Nature of the test: Amylin Receptor cAMP Assay I. In kind it is cell-based. Conditions: values marked *: Amylin Receptor cAMP Assay I; COS-7/AMY3 cells, cAMP Hi-range kit, 30 min; read-out: Amylin Receptor cAMP Stimulation Activity: EC50. The source says: Amylin Receptor cAMP Assay I
AMYRs are heterodimers of the class B calcitonin (CT) G-protein-coupled receptor (CTR) and receptor activity-modifying proteins (RAMPs). All three RAMPs can interact with the CTR and form AMY1, AMY2, AMY3 with RAMP1, RAMP2 and RAMP3, respectively. Like other class B1 GPCRs, the CT receptor family is canonically coupled to Gs-mediated cAMP production, and measurement of cAMP accumulation has been the primary assay used to determine peptide selectivity and potency.
To optimize functional activity directed toward Gαs coupling, COS-7 cells were stably transfected with human calcitonin receptor (CTR) and RAMP3, simultaneously. 100×concentration of compound working solutions were prepared (Agilent Technologies Bravo) with 4-fold serial dilution in 384-well Echo LDV plate (Labcyte, Cat #LP-0200). 100 nL/well 100×concentration of compound working solutions were moved to 384-well white low volume plate (Greiner, Cat #784075) using Labcyte ECHO550. […]
After incubation, the cAMP assay signal was generated using cAMP Hi-range Kit (Cisbio). […] The samples were then incubated at room temperature for 1 hour protected from light. the fluorescence was read at 665 and 615 nm with Reader PerkinElmer EnVision. % Activity=100%×(mean RLU of test sample−mean RLU of vehicle control)/(mean RLU of MAX control−mean RLU of vehicle control)) Amylin Receptor cAMP Assay II

T2 sequence (O60896 24-148, one chain of several): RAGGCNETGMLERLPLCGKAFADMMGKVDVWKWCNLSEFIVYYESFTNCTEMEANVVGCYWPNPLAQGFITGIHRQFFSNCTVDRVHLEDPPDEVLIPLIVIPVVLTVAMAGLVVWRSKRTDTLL

`COc1cccc2c1CC[C@H]2NC(=O)c1ccc(-c2c3c(nc(CCc4ccc(F)cc4)c2-c2noc(=O)[nH]2)[C@@H]2CCCN2C3=O)s1` [Compound 108, 5-((S)-2-(4-fluorophenethyl)-5-oxo-3-(5-oxo-4,5-dihydro-1,2,4-oxadiazol-3-yl)-7,8,9,9a-tetrahydro-5H-pyrido[2,3-a]pyrrolizin-4-yl)-N—((R)-4-methoxy-2,3-dihydro-1H-inden-1-yl)thiophene-2-carboxamide]: the concentration giving a half-maximal response (EC50) (as a rule, the concentration giving half of the maximal effect) in test [1] amounted to 2.42 nM; in test [2] it was 121 nM.
